Results: publication PMC10787880, “Structural and functional characterization of a new thermophilic-like OYE from Aspergillus flavus” (Applied Microbiology and Biotechnology, 2024)

Biological target: T1, AfOYE1 (Aspergillus flavus, UniProt B8N8Q9)
T1 construct: gene afvA; codon-optimised gene in pET28b, E. coli BL21(DE3); N-terminal His6-TEV tag, cut by TEV protease; about 43 kDa; dimer in the crystal; non-covalent FMN
Test: X-ray crystal structure […] Å; UV-visible spectrum of released flavin
Type: binding
Conditions: non-covalent prosthetic group, active site; chloride and ethylene glycol also in site

T1 sequence (B8N8Q9 whole entry): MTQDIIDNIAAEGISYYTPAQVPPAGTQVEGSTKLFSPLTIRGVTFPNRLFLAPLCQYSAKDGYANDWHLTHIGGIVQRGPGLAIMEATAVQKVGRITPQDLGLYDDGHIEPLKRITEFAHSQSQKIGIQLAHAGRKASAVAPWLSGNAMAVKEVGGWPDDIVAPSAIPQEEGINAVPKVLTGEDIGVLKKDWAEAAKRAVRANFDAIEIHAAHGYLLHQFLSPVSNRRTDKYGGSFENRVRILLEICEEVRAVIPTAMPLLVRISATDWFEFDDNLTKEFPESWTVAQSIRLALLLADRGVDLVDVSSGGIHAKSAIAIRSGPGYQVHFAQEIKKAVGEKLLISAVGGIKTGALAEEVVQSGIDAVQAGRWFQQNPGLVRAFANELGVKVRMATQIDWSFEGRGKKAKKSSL

## Cc1cc2nc3c(=O)[nH]c(=O)nc-3n(C[C@H](O)[C@H](O)[C@H](O)COP(=O)(O)O)c2cc1C [FMN]
  X-ray crystal structure 1.55 Å; UV-visible spectrum of released flavin: On the top of the β-barrel core of each monomer encircles one FMN cofactor
